Laboratory results taken from patent US20230250096A1, “SUBSTITUTED PHENYL-1H-PYRROLO[2,3-c] PYRIDINE DERIVATIVES” (Janssen Pharmaceutica NV, priority 2021, published 2023).
pIC50: −log10 of the molar value.

What was measured:
[1] = molecular target: T1, menin/MLL (terbium chelate-labeled menin, FITC-MBM1 peptide) (Homo sapiens, UniProt O00255, T541A); assay: Menin/MLL homogenous time-resolved fluorescence (HTRF) assay; type: binding; conditions: 30 min incubation
T1 construct: Menin (a.a 1-610-6xhis tag, 2.3 mg/mL in 20 mM Hepes)
T1 sequence (O00255 with tags, fused parts or gaps T541A): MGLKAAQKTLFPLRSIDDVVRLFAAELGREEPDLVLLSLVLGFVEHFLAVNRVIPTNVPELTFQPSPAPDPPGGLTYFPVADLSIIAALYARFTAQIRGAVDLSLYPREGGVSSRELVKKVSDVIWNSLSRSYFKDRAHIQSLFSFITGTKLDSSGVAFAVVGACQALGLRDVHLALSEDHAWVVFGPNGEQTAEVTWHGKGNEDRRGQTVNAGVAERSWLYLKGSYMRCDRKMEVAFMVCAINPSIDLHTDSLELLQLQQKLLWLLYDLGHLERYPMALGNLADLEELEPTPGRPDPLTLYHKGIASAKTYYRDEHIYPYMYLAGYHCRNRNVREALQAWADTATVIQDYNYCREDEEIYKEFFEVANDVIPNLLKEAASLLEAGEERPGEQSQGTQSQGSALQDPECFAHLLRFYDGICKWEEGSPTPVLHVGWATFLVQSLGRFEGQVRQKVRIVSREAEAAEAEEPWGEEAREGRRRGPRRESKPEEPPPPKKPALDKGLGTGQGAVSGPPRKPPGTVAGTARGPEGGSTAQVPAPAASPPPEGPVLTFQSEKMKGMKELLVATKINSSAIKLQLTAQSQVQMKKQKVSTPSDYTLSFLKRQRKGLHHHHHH
Method: 1) Menin/MLL Homogenous Time-Resolved Fluorescence (HTRF) Assay
To an untreated, white 384-well microtiter plate was added 40 nL 200× test compound in DMSO and 4 μL 2× terbium chelate-labeled menin (vide infra for preparation) in assay buffer (40 mM Tris HCl, pH 7.5, 50 mM NaCl. 1 mM DTT (dithiothreitol) and 0.05% Pluronic F-127). After incubation of test compound and terbium chelate-labeled menin for 30 min at ambient temperature, 4 μL 2×FITC-MBM1 peptide (FITC-β-alanine-[…]-NH2) (“FITC” means fluorescein isothiocyanate) in assay buffer was added, the microtiter plate centrifuged at 1000 rpm for 1 min and the assay mixtures incubated for 15 min at ambient temperature. The relative amount of menin FITC-MBM1 complex present in an assay mixture is determined by measuring the homogenous time-resolved fluorescence (HTRF) of the terbium/FITC donor/acceptor fluorphore pair using an EnVision microplate reader (ex. 337 nm/terbium em. 490 nm/FITC em. 520 nm) at ambient temperature. The degree of fluorescence resonance energy transfer (the HTRF value) is expressed as the ratio of the fluorescence emission intensities of the FITC and terbium fluorophores (F^em520 nm/F^em490 nm). The final concentrations of reagents in the binding assay are […] terbium chelate-labeled menin, 75 nM FITC-MBM1 peptide and 0.5% DMSO in assay buffer. Dose-response titrations of test compounds are conducted using an 11 point, four-fold serial dilution scheme, starting typically at 10 μM.
Compound potencies were determined by first calculating % inhibition at each compound concentration according to equation 1:
% inhibition=((HC−LC)−(HTRF^compound−LC))/(HC−LC))*100 (Eqn 1)
Where LC and HC are the HTRF values of the assay in the presence or absence of a saturating concentration of a compound that competes with FITC-MBM1 for binding to menin, and HTRF^compound is the measured HTRF value in the presence of the test compound. HC and LC HTRF values represent an average of at least 10 replicates per plate.
% inhibition=Bottom+(Top−Bottom)/(1+10^((log/C50−log[cmpd])*h)) (Eqn 2)
Where Bottom and Top are the lower and upper asymptotes of the dose-response curve, respectively, IC50 is the concentration of compound that yields 50% inhibition of signal and h is the Hill coefficient.
Preparation of Terbium cryptate labeling of Menin: Menin (a.a 1-610-6xhis tag, 2.3 mg/mL in 20 mM Hepes (2-[4-(2-Hydroxyethyl)-1-piperazinyl]ethane sulfonic acid), 80 mM NaCl, 5 mM DTT (Dithiothreitol), pH 7.5) was labeled with terbium cryptate as follows. 200 μg of Menin was buffer exchanged into 1×Hepes buffer. 6.67 μM Menin was incubated with 8-fold molar excess NHS (N-hydroxysuccinimide)-terbium cryptate for 40 minutes at room temperature. Half of the labeled protein was purified away from free label by running the reaction over a NAP5 column with elution buffer (0.1M Hepes, pH 7+0.1% BSA (bovine serum albumin)). The other half was eluted with 0.1 M phosphate buffered saline (PBS), pH7. 400 μl of eluent was collected for each, aliquoted and frozen at −80° C. The final concentration of terbium-labeled Menin protein was 115 μg/mL in Hepes buffer and 85 μg/mL in PBS buffer, respectively.

MEIS1 mRNA expression = MEIS1 mRNA expression assay (Quantigene Singleplex) in MOLM14 cells; type: cell-based, human; conditions: 48 hours incubation
Method: 2b) MEIS1 mRNA Expression Assay
MEIS1 mRNA expression upon treatment of compound was examined by Quantigene Singleplex assay (Thermo Fisher Scientific). This technology allows for direct quantification of mRNA targets using probes hybridizing to defined target sequences of interest and the signal is detected using a Multimode plate reader Envision (PerkinElmer). The MOLM14 cell line was used for this experiment. Cells were plated in 96-well plates at 3,750 cells/well in the presence of increasing concentrations of compounds. After incubation of 48 hours with compounds, cells were lysed in lysis buffer and incubated for 45 minutes at 55° C. Cell lysates were mixed with human MEIS specific capture probe or human RPL28 (Ribosomal Protein L28) specific probe as a normalization control, as well as blocking probes. Cell lysates were then transferred to the custom assay hybridization plate (Thermo Fisher Scientific) and incubated for 18 to 22 hours at 55° C. Subsequently, plates were washed to remove unbound materials followed by sequential addition of preamplifiers, amplifiers, and label probe. Signals (═gene counts) were measured with a Multimode plate reader Envision. IC50S were calculated by dose-response modelling using appropriate software. For all non-housekeeper genes response equal counts corrected for background and relative expression. For each sample, each test gene signal (background subtracted) was divided by the normalization gene signal (RPL28: background subtracted). Fold changes were calculated by dividing the normalized values for the treated samples by the normalized values for the DMSO treated sample. Fold changes of each target gene were used for the calculation of IC50S.

SMILES | pIC50 [1] | pIC50 (MEIS1 mRNA expression; Homo sapiens, MOLM-14, 48 h) | pIC50 (MEIS1 mRNA expression)
CC[C@@H]([C@H]1C[C@@H](N2C[C@H]3CN(C(C)=O)C[C@@H]3C2)C1)N1CC[C@H](Cc2cn(-c3ccc(F)cc3C(=O)N(C)C(C)C)c3cncc(Cl)c23)C1 (single isomer, unassigned) [Compound 27c] | 10.42 | 7.40 | 
CC(=O)N1CCC(CN2CC[C@@H](Cc3cn(-c4ccc(F)cc4[S@]4(=O)=NCCC4)c4cncc(C)c34)C2)CC1 (single isomer, unassigned) [Compound 214b] | 7.93 | ~5.14 | 
Cc1cncc2c1c(CC1CN(CC3(C)CCN(C(N)=O)CC3)C1)cn2-c1ccc(F)cc1C(=O)N(C)C(C)C [Compound 219] | 10.41 | 7.49 | 
CC(=O)N1CCC([C@@H](C)N2CC[C@@H](Cc3cn(-c4ccc(F)cc4[S@@](=N)(=O)C(C)C)c4cncc(C)c34)C2)CC1 (single isomer, unassigned) [Compound 231a] | 9.51 | 7.28 | 
CC(=O)N1C[C@@H]2CN(CCCC(C(C)C)N3CC[C@@H](Cc4cn(-c5ccc(F)cc5C(=O)N(C)C(C)C)c5cncc(C)c45)C3)C[C@H]2C1 (mixture of isomers) [Compound 12] | 10.74 | 8.30 | 
Cc1cncc2c1c(C[C@H]1CCN(CC3CCN(C(=O)C(C)(C)O)CC3)C1)cn2-c1ccc(F)cc1C(=O)N(C)C(C)C [Compound 244] | 10.00 | 7.29 | 
CCC(CCCN1C[C@H]2CN(C(C)=O)C[C@@H]2C1)N1CC[C@H](Cc2cn(-c3ccc(F)cc3C(=O)N(C)C(C)C)c3cncc(C)c23)C1 (mixture of isomers) [Compound 17] | 10.51 | 7.32 | 
Cc1cncc2c1c(CC1CN(C3CCCN(C)C(=O)C3)C1)cn2-c1ccc(F)cc1C(=O)N(C)C(C)C (stereo not drawn) [Compound 291] | 9.23 | 6.33 | 
CC(=O)N1CCC(CN2CCC[C@@H](Cc3cn(-c4ccc(F)cc4C(=O)N(C)C(C)C)c4cncc(C)c34)C2)CC1 [Compound 146] | 8.91 | < 6.00 | 
Cc1cncc2c1c(CC1CCN(C[C@@H]3CCC(=O)N3)CC1)cn2-c1ccc(F)cc1C(=O)N(C)C(C)C [Compound 105] | 9.14 | < 6.00 | 
Cc1cncc2c1c(C[C@H]1CCN(CC3COC3)C1)cn2-c1ccc(F)cc1C(=O)N(C)C(C)C (single isomer, unassigned) [Compound 47] | 10.38 | 7.26 | 
Cc1cncc2c1c(CC1CN(CC3CCOCC3)C1)cn2-c1ccc(F)cc1C(=O)N(C)[C@H]1C[C@@H](O)C1 [Compound 274] | 8.62 | < 6.00 | 
Cc1cncc2c1c(CC1CN(CC(=O)N3CCOCC3)C1)cn2-c1ccc(F)cc1C(=O)N(C)C(C)C [Compound 83] | 8.89 | 5.65 | 
Cc1cncc2c1c(CC1CCN(CC3CCN(C(=O)CCO)CC3)C1)cn2-c1ccc(F)cc1C(=O)N(C)C(C)C (single isomer, unassigned) [Compound 82] | ~10.46 | 7.96 | 
CC(=O)N1CCC(CN2C[C@H](Cc3cn(-c4ccc(F)cc4C(=O)N(C)C(C)C)c4cncc(C)c34)C[C@H]2C)CC1 [Compound 130] | 8.92 | 6.50 | 
Cc1cncc2c1c(CC1CN([C@H](C)C3CCS(=O)(=O)CC3)C1)cn2-c1ccc(F)cc1C(=O)N(C)C(C)C (single isomer, unassigned) [Compound 213a] | 9.25 | 5.94 | 
Cc1cncc2c1c(CC1CCN(CC3CCN(C(=O)CC4CS(=O)(=O)C4)CC3)C1)cn2-c1ccc(F)cc1C(=O)N(C)C(C)C (single isomer, unassigned) [Compound 108] | 9.79 |  | 6.82

Further lines, results first:

pIC50 [1] | pIC50 (MEIS1 mRNA expression; Homo sapiens, MOLM-14, 48 h) | pIC50 (MEIS1 mRNA expression) | SMILES
9.73 | 7.43 |  | CC(=O)N1CCC(C)(CN2CC[C@@H](Cc3cn(-c4ccc(F)cc4C(=O)N(C[C@H](C)O)C(C)C)c4cncc(C)c34)C2)CC1 [Compound 338]
9.47 | 6.26 |  | CC(=O)N1CCC2(CCC2N2CC(Cc3cn(-c4ccc(F)cc4C(=O)N(C)C(C)C)c4cncc(C)c34)C2)CC1 (stereo not drawn) [Compound 296]
9.32 | < 6.00 |  | CC(=O)N1CCCCC1C1(CN2CC(Cc3cn(-c4ccc(F)cc4C(=O)N(C)C(C)C)c4cncc(C)c34)C2)CC1 (stereo not drawn) [Compound 297]
10.43 | 7.70 |  | Cc1cncc2c1c(C[C@@H]1CCN(CC3CCN(C(=O)C(C)(C)O)CC3)C1)cn2-c1ccc(F)cc1C(=O)N1CCC2CC21 (stereo partly drawn) [Compound 341]
9.25 | ~6.23 |  | CC(=O)N1CCC(N2CC(Cc3cn(-c4ccc(F)cc4C(=O)N(C)C(C)C)c4cncc(C)c34)C2)C[C@H]1C (single isomer, unassigned) [Compound 292b]
10.40 | 7.92 |  | Cc1cncc2c1c(C[C@@H]1CCN(C[C@H]3CCNC(=O)CC3)C1)cn2-c1ccc(F)cc1C(=O)N1CCC2CC21 (single isomer, unassigned) [Compound 351a]
10.08 | 6.75 |  | CC(=O)N1CCC(C2(CN3CC(Cc4cn(-c5ccc(F)cc5C(=O)N(C)C(C)C)c5cncc(C)c45)C3)CC2)CC1 [Compound 298]
10.36 | 7.32 |  | Cc1cncc2c1c(CC1CN(CC3(O)CCOCC3)C1)cn2-c1ccc(F)cc1C(=O)N(C)C(C)C [Compound 307]
10.17 | ~6.50 |  | Cc1cncc2c1c(CC1CCN(C(CCC3OCCO3)C(C)C)C1)cn2-c1ccc(F)cc1C(=O)N(C)C(C)C (single isomer, unassigned) [Compound 366]
9.72 | 7.62 |  | CC(=O)N1CCC(CN2CC[C@@H](Cc3cn(-c4ccc(F)cc4C(=O)N(C[C@@H](C)O)C(C)C)c4cncc(C)c34)C2)CC1 (single isomer, unassigned) [Compound 320a]
